These results are taken from US10538498B2, “1,3,4-oxadiazole sulfonamide derivative compounds as histone deacetylase 6 inhibitor, and the pharmaceutical composition comprising the same” (Chong Kun Dang Pharmaceutical Corp., priority 2015, dated 2020).

The test addresses T1, human recombinant HDAC6 (Homo sapiens, UniProt Q9UBN7).
T1 construct: purchased Calbiochem 382180
T1 sequence (Q9UBN7 1-1215): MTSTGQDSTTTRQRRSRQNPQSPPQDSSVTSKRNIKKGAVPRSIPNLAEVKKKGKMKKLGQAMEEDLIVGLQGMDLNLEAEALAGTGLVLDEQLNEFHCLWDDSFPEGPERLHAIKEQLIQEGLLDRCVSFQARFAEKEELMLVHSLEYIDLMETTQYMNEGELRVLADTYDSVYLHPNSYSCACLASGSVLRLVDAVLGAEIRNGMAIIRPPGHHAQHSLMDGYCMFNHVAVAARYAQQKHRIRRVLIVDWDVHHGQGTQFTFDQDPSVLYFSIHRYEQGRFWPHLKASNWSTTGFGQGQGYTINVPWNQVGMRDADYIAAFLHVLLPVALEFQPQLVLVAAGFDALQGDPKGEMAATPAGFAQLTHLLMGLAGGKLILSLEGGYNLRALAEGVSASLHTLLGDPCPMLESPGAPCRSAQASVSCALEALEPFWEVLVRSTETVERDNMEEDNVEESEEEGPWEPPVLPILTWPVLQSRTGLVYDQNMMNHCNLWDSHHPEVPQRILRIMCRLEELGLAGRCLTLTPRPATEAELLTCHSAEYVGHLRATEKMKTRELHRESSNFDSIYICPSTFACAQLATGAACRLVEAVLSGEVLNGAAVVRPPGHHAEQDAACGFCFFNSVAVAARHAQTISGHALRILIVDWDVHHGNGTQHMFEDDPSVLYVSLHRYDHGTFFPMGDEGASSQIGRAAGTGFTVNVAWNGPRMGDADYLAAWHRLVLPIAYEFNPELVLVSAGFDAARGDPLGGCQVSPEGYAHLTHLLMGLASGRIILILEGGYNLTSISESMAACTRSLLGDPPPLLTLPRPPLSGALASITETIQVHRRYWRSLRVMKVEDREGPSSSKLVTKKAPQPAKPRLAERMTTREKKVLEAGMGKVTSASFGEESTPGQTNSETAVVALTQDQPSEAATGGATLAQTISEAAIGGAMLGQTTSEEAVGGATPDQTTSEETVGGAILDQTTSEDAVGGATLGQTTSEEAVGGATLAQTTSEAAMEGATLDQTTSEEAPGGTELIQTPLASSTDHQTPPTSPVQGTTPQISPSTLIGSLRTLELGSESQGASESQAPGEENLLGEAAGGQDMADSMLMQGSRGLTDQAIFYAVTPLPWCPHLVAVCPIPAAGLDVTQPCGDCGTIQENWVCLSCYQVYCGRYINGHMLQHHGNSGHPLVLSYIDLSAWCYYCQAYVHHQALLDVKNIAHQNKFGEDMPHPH
Put plainly: HDAC6 enzyme activity inhibition assay (HDAC Fluorimetric Drug Discovery Kit). The test is classed as biochemical. The conditions noted are these: for HDAC6 selectivity (fold): HDAC1 vs HDAC6; for IC50: same protocol as the HDAC1 enzyme activity test. The method, boiled down: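 Recombinant enzyme (0.3 μg) was incubated with 5-fold serially diluted compound and 10 μM Fluor de Lys-SIRT1 substrate for 60 min at 30° C. Developer II was then added for 30 min, fluorescence read at Ex 360/Em 460, and IC50 values were calculated.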

A word on the IC50: it is the concentration needed to halve the response being measured. Take `O=C(OCC1CCN(CCS(=O)(=O)N(Cc2ccc(-c3nnc(C(F)F)o3)cc2)c2ccccc2)CC1)C(F)F` [Compound 11676, (1-(2-(N-(4-(5-(difluoromethyl)-1,3,4-oxadiazol-2-yl)benzyl)-N-Phenylsulfamoyl)ethyl)piperidin-4-yl)methyl 2,2-difluoroacetate]: the “HDAC6 selectivity (fold)” value is listed as 1408 fold and the IC50 is 71 nM.

Take `CC(C)N1CC(N2CCC(S(=O)(=O)N(Cc3ccc(-c4nnc(C(F)F)o4)cc3)c3cccc(Cl)c3)CC2)C1` [Compound 11778, N-(3-chlorophenyl)-N-(4-(5-(difluoromethyl)-1,3,4-oxadiazol-2-yl)benzyl)-1-(1-isopropylazetidin-3-yl)piperidine-4-sulfonamide]: the “HDAC6 selectivity (fold)” value is on record as 2724 fold and the half-inhibitory concentration (IC50) was 36.7 nM.

Take `Cc1ccccc1N(Cc1ccc(-c2nnc(C(F)(F)F)o2)cc1F)S(C)(=O)=O` [Compound 11248, N-(2-fluoro-4-(5-(trifluoromethyl)-1,3,4-oxadiazol-2-yl)benzyl)-N-(o-tolyl)methanesulfonamide]: the “HDAC6 selectivity (fold)” value is 893 fold and the concentration for half-maximal inhibition (IC50) stood at 112 nM.

For the compound `O=S(=O)(CCN1CCC(N2CCOCC2)CC1)N(Cc1ccc(-c2nnc(C(F)F)o2)cc1)c1ccccc1` [Compound 11763, N-(4-(5-(difluoromethyl)-1,3,4-oxadiazol-2-yl)benzyl)-2-(4-morpholinopiperidin-1-yl)-N-phenylethane-1-sulfonamide], the “HDAC6 selectivity (fold)” value is 948 fold and the IC50 was found to be 105 nM.

Take `CC(=O)N1CC(N2CCC(S(=O)(=O)N(Cc3ccc(-c4nnc(C(F)F)o4)cc3)c3cccc(Cl)c3)CC2)C1` [Compound 11779, 1-(1-acetylazetidin-3-yl)-N-(3-chlorophenyl)-N-(4-(5-(difluoromethyl)-1,3,4-oxadiazol-2-yl)benzyl)piperidine-4-sulfonamide]: the “HDAC6 selectivity (fold)” value came to 2493 fold and the 50% inhibitory concentration (IC50) amounted to 40.1 nM.

On to `O=S(=O)(CCN1CC=C(c2ccc(Cl)cc2)CC1)N(Cc1ccc(-c2nnc(C(F)F)o2)cc1)c1ccccc1` [Compound 11842, 2-(4-(4-chlorophenyl)-3,6-dihydropyridin-1(2H)-yl)-N-(4-(5-(difluoromethyl)-1,3,4-oxadiazol-2-yl)benzyl)-N-phenylethane-1-sulfonamide], for which the “HDAC6 selectivity (fold)” value amounted to 121 fold and the IC50 amounted to 826 nM.

`O=S(=O)(CCCN1CCOCC1)N(Cc1ccc(-c2nnc(C(F)F)o2)cc1F)c1ccccc1` [Compound 11588, N-(4-(5-(difluoromethyl)-1,3,4-oxadiazol-2-yl)-2-fluorobenzyl)-3-morpholino-N-phenylpropane-1-sulfonamide]: the “HDAC6 selectivity (fold)” value was found to be 2273 fold and the IC50 turned out to be 44 nM.

For the compound `O=S(=O)(CCN1CC[C@@H](CO)C1)N(Cc1ccc(-c2nnc(C(F)F)o2)cc1)c1ccccc1` [Compound 11805, (R)—N-(4-(5-(difluoromethyl)-1,3,4-oxadiazol-2-yl)benzyl)-2-(3-(hydroxymethyl)pyrrolidin-1-yl)-N-phenylethane-1-sulfonamide], the “HDAC6 selectivity (fold)” value came out at 3021 fold and the IC50 was determined as 33.1 nM.

For the compound `CS(=O)(=O)N(Cc1ccc(-c2nnc(C(F)F)o2)cc1F)c1ccc(C(F)(F)F)cc1` [Compound 11221, N-(4-(5-(difluoromethyl)-1,3,4-oxadiazol-2-yl)-2-fluorobenzyl)-N-(4-(trifluoromethyl)phenyl)methanesulfonamide], the “HDAC6 selectivity (fold)” value is 990 fold and the IC50 is 101 nM.

`CCN(CCS(=O)(=O)N(Cc1ccc(-c2nnc(C(F)F)o2)cc1)c1ccccc1)Cc1ccccc1` [Compound 11765, 2-(benzyl(ethyl)amino)-N-(4-(5-(difluoromethyl)-1,3,4-oxadiazol-2-yl)benzyl)-N-phenylethane-1-sulfonamide]: the “HDAC6 selectivity (fold)” value is given as 526 fold and the IC50 is 190 nM.

For `CN(C)[C@@H]1CCN(CCS(=O)(=O)N(Cc2ccc(-c3nnc(C(F)F)o3)cc2)c2ccccc2)C1` [Compound 11754, (R)—N-(4-(5-(difluoromethyl)-1,3,4-oxadiazol-2-yl)benzyl)-2-(3-(dimethylamino)pyrrolidin-1-yl)-N-phenylethane-1-sulfonamide], the “HDAC6 selectivity (fold)” value is reported as 1420 fold and the IC50 stood at 70.4 nM.

With `CS(=O)(=O)N1CCN(CCS(=O)(=O)N(Cc2ccc(-c3nnc(C(F)F)o3)cc2F)c2ccc(F)c(Cl)c2)CC1` [Compound 11554, N-(3-chloro-4-fluorophenyl)-N-(4-(5-(difluoromethyl)-1,3,4-oxadiazol-2-yl)-2-fluorobenzyl)-2-(4-(methylsulfonyl)piperazin-1-yl)ethane-1-sulfonamide], the “HDAC6 selectivity (fold)” value stood at 4348 fold and the IC50 amounted to 23 nM.

As to `CS(=O)(=O)N(Cc1ccc(-c2nnc(C(F)F)o2)cc1)Cc1ccc(-c2nnc(C(F)F)o2)cc1` [Compound 11186, N,N-bis(4-(5-(difluoromethyl)-1,3,4-oxadiazol-2-yl)benzyl)methanesulfonamide], the “HDAC6 selectivity (fold)” value is recorded as 433 fold and the IC50 is 231 nM.

As for `O=S(=O)(CCN1CCN(c2ccccc2)CC1)N(Cc1ccc(-c2nnc(C(F)F)o2)cc1)c1ccccc1` [Compound 11766, N-(4-(5-(difluoromethyl)-1,3,4-oxadiazol-2-yl)benzyl)-N-phenyl-2-(4-phenylpiperazin-1-yl)ethane-1-sulfonamide], the “HDAC6 selectivity (fold)” value was determined as 319 fold and the IC50 turned out to be 313 nM.

Consider `O=S(=O)(CCN1CCN(CCc2ccccc2)CC1)N(Cc1ccc(-c2nnc(C(F)F)o2)cc1)c1ccccc1` [Compound 11771, N-(4-(5-(difluoromethyl)-1,3,4-oxadiazol-2-yl)benzyl)-2-(4-phenethylpiperazin-1-yl)-N-phenylethane-1-sulfonamide], for which the “HDAC6 selectivity (fold)” value is recorded as 311 fold and the IC50 came out at 321 nM.

Turning to `CN(C)[C@H]1CCN(CCS(=O)(=O)N(Cc2ccc(-c3nnc(C(F)F)o3)cc2)c2ccccc2)C1` [Compound 11755, (S)—N-(4-(5-(difluoromethyl)-1,3,4-oxadiazol-2-yl)benzyl)-2-(3-(dimethylamino)pyrrolidin-1-yl)-N-phenylethane-1-sulfonamide], the “HDAC6 selectivity (fold)” value was 1377 fold and the IC50 is 72.6 nM.

Regarding `CCN1CCC(S(=O)(=O)N(Cc2ccc(-c3nnc(C(F)F)o3)cc2F)c2ccccc2)CC1` [Compound 11373, N-(4-(5-(difluoromethyl)-1,3,4-oxadiazol-2-yl)-2-fluorobenzyl)-1-ethyl-N-phenylpiperidine-4-sulfonamide], the “HDAC6 selectivity (fold)” value is 10000 fold and the IC50 was 10 nM.

Consider `CCS(=O)(=O)N(Cc1ccc(-c2nnc(C(F)F)o2)cn1)c1cccc2c1cnn2C` [Compound 11539, N-((5-(5-(difluoromethyl)-1,3,4-oxadiazol-2-yl)pyridin-2-yl)methyl)-N-(1-methyl-1H-indazol-4-yl)ethanesulfonamide], for which the “HDAC6 selectivity (fold)” value came out at 4348 fold and the half-inhibitory concentration (IC50) turned out to be 23 nM.

For `CS(=O)(=O)N(Cc1ccc(-c2nnc(C(F)F)o2)cc1F)c1cccc(F)c1` [Compound 11182, N-(4-(5-(difluoromethyl)-1,3,4-oxadiazol-2-yl)-2-fluorobenzyl)-N-(3-fluorophenyl)methanesulfonamide], the “HDAC6 selectivity (fold)” value came out at 5882 fold and the IC50 came out at 17 nM.

Take `O=S(=O)(CCN1CCC[C@@H]1CO)N(Cc1ccc(-c2nnc(C(F)F)o2)cc1)c1ccccc1` [Compound 11803, (R)—N-(4-(5-(difluoromethyl)-1,3,4-oxadiazol-2-yl)benzyl)-2-(2-(hydroxymethyl)pyrrolidin-1-yl)-N-phenylethane-1-sulfonamide]: the “HDAC6 selectivity (fold)” value amounted to 4587 fold and the IC50 was 21.8 nM.

`O=C(CN1CCN(CCS(=O)(=O)N(Cc2ccc(-c3nnc(C(F)F)o3)cc2)c2ccccc2)CC1)N1CCOCC1` [Compound 11751, N-(4-(5-(difluoromethyl)-1,3,4-oxadiazol-2-yl)benzyl)-2-(4-(2-morpholino-2-oxoethyl)piperazin-1-yl)-N-phenylethane-1-sulfonamide]: the “HDAC6 selectivity (fold)” value was 1170 fold and the IC50 turned out to be 85.4 nM.
